In PMC7363588, “Mapping of the FGF14:Nav1.6 complex interface reveals FLPK as a functionally active peptide modulating excitability” (Physiological Reports, 2020):
Where “and” joins values, the source holds several entries; their conditions need not be identical. Equal entries are not always repeated. Entries after “also recorded” stand apart in the source; their conditions may differ. Peptide text beside a SMILES is read from it.

Molecular target: T1, Nav1.6 (Homo sapiens, UniProt Q9UQD0)
T1 construct: expressed in transfected cells
T1 sequence (Q9UQD0 whole entry): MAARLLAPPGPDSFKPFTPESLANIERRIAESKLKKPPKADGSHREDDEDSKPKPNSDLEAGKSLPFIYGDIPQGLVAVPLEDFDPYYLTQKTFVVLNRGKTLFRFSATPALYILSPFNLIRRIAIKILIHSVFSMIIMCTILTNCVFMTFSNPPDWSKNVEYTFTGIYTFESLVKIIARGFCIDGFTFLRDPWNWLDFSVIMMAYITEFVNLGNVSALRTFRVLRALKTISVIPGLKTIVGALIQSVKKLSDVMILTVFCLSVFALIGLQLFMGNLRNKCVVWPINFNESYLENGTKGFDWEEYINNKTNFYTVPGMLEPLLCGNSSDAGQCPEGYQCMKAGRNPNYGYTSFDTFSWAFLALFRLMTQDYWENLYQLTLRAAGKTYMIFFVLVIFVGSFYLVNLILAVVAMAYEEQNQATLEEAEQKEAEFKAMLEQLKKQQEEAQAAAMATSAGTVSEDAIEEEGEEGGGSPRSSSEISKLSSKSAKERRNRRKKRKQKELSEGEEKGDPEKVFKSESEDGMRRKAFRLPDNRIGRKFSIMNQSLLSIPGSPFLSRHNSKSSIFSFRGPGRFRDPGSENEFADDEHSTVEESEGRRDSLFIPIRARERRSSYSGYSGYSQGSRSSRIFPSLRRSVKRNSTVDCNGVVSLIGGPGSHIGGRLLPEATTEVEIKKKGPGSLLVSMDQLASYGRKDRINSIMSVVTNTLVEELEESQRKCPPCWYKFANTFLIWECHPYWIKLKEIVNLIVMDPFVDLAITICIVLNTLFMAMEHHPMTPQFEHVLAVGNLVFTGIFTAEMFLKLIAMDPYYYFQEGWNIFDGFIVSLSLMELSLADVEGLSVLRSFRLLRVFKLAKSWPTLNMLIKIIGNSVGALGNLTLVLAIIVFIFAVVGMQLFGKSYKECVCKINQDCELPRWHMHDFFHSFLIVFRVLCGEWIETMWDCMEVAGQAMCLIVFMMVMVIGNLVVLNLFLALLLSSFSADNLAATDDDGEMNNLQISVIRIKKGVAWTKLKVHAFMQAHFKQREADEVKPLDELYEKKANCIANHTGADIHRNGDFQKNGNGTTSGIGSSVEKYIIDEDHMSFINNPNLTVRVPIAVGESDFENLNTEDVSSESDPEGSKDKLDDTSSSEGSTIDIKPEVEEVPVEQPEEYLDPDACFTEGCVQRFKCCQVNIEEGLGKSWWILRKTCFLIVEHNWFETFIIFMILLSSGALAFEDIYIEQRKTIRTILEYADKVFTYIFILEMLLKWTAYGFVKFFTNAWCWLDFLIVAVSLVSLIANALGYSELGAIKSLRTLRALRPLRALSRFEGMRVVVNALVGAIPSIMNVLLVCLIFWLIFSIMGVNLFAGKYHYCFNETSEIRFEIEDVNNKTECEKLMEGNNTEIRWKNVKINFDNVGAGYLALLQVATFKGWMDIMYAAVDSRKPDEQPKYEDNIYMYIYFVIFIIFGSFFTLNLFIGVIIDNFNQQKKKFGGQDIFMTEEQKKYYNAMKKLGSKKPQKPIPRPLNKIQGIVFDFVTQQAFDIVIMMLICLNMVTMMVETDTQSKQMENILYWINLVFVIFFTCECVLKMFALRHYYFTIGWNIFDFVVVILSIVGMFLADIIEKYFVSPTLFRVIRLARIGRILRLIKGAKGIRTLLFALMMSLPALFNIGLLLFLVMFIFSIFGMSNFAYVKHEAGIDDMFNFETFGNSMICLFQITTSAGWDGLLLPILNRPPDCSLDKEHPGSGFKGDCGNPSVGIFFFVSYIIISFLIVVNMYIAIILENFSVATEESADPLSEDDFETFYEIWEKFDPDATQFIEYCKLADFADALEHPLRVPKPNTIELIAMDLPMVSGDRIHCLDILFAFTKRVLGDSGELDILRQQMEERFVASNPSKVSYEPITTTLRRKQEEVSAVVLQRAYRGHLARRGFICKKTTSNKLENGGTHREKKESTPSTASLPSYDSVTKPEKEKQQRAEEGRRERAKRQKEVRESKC
Assay: Whole-cell patch-clamp, HEK-Nav1.6 cells expressing GFP
Format: cell-based
Settings: 50 μM FLPK
Procedure: HEK293 cells were maintained in DMEM and F‐12 (Invitrogen, Carlsbad, CA), supplemented with 0.05% glucose, 0.5 mM pyruvate, 10% fetal bovine serum, 100 units/ml penicillin, and 100 µg/ml streptomycin (Invitrogen), and incubated at 37 °C with 5% CO2. HEK293 cells stably expressing the human Nav1.6 channel (hereafter referred to as HEK‐Nav1.6 cells) were maintained similarly except for the addition of 500 μg/ml G418 (Invitrogen) to maintain stable Nav1.6 expression. Cells were transfected at 80%–90% confluence with equal amount (1 μg each) of plasmid pairs using Lipofectamine 2000 (Invitrogen) according to manufacturer's instructions. HEK‐Nav1.6 cells were washed and replated at very low density prior to electrophysiological recordings (Ali et al., 2016, 2018; Scala et al., 2018; Wadsworth et al., 2019).
HEK‐Nav1.6 cells transfected with GFP or FGF14‐GFP were plated at low density on glass cover slips for 3–4 hr and subsequently transferred to the recording chamber. Recordings were performed at room temperature (20–22°C) 24 hr posttransfection using a MultiClamp 700B amplifier (Molecular Devices, Sunnyvale, CA). The composition of recording solutions consisted of the following salts; extracellular (mM): 140 NaCl, 3 KCl, 1 MgCl2, 1 CaCl2, 10 HEPES, 10 glucose, pH 7.3; intracellular (mM): 130 CH3O3SCs, 1 EGTA, 10 NaCl, 10 HEPES, pH 7.3. Membrane capacitance and series resistance were estimated by the dial settings on the amplifier and compensated for electronically by 70%–75%. Data were acquired at 20 kHz and filtered at 5 kHz prior to digitization and storage. All experimental parameters were controlled by Clampex 9.2 software (Molecular Devices) and interfaced to the electrophysiological equipment using a Digidata 1,200 analog‐digital interface (Molecular Devices). Voltage‐dependent inward currents for HEK‐Nav1.6 cells were evoked by depolarization to test potentials between −100 mV and +60 mV from a holding potential of −70 mV followed by a voltage prestep pulse of −120 mV (Nav1.6). Steady‐state (fast) inactivation of Nav channels was measured with a paired‐pulse protocol. From the holding potential, cells were stepped to varying test potentials between −120 mV (Nav1.6) and +20 mV (prepulse) prior to a test pulse to −20 mV.
Current densities were obtained by dividing Na^+ current (INa) amplitude by membrane capacitance. Current–voltage relationships were generated by plotting current density as a function of the […]. Conductance (GNa) was calculated by the following equation: GNa=INa/Vm‐Erev where INa ^+ is the current amplitude at voltage Vm, and Erev is the Na^+ reversal potential.
Activation curves were derived by plotting normalized GNa as a function of test potential and fitted using the Boltzmann equation: GNa/GNa,Max=1/1+eVa‐Em/k where GNa,Max is the maximum conductance, Va is the membrane potential of half‐maximal activation, Vm is the membrane voltage and k is the slope factor.
The membrane potential of half‐maximal activation, Em is the membrane voltage and k is the slope factor. For steady‐state inactivation, normalized current amplitude (INa/INa,Max) at the test potential was plotted as a function of prepulse potential (Vm) and fitted using the Boltzmann equation: INa/INa,Max=1/1+e‐Vh‐Em/k where Vh is the potential of half‐maximal inactivation, Em is the membrane voltage, and k is the slope factor.
To test whether FLKP had any modulatory effects on Nav1.6‐mediated Na^+ currents, we used whole‐cell patch‐clamp electrophysiology in HEK293 cells stably expressing Nav1.6 (HEK‐Nav1.6) that were transiently transfected with either GFP (HEK‐Nav1.6 GFP) or FGF14‐1b‐GFP (HEK‐Nav1.6 FGF14‐GFP); each group was either treated with FLPK (50 μM from a stock solution dissolved in DMSO) or 0.1% DMSO alone (vehicle) (Figure 5a‐c). […]

CC(=O)N[C@@H](Cc1ccccc1)C(=O)N[C@@H](CC(C)C)C(=O)N1CCC[C@H]1C(=O)N[C@@H](CCCCN)C(N)=O [FLPK] (Ac-FLPK-NH2)
effect on Nav1.6 currents without FGF14 (HEK-Nav1.6 GFP vs 0.1% DMSO): not statistically different; also recorded: no measurable effects in cells expressing Nav1.6 alone
Tau (τ), decay time constant of I Na (HEK-Nav1.6 GFP, at −10 mV, mean ± SEM (n = 12), DMSO 1.0 ± 0.08, p = .0495): 0.8 ± 0.03 ms and 0.8 ± 0.03 (12)r ms
Peak density (I Na) (HEK-Nav1.6 GFP, at −10 mV, mean ± SEM (n = 14), DMSO −58.6 ± 13.9 (Table 3)): −80.8 ± 12.2 pA/pF and −80.8 ± 12.2 (14) pA/pF
Kinact (HEK-Nav1.6 GFP, mean ± SEM (n = 10), DMSO 5.8 ± 0.4): 6.1 ± 0.5 (10) mV
Steady-state Inactivation (V1/2) (HEK-Nav1.6 GFP, mean ± SEM (n = 10), DMSO −58.9 ± 0.8): −59.3 ± 1.9 (10) mV
Kact (HEK-Nav1.6 GFP, mean ± SEM (n = 12), DMSO 4.3 ± 0.2): 3.9 ± 0.3 (12) mV
Activation (V1/2) (HEK-Nav1.6 GFP, mean ± SEM (n = 12), DMSO −21.8 ± 1.3): −20.5 ± 1.2 (12) mV
